Measured values published in article PMC4890880 (ACS infectious diseases, 2016).
Where two headings read alike, the source gives them in different places.

Key:
[1] = system: Plasmodium berghei (Pb-Luc) exoerythrocytic-stage parasites; details: for normalized signal at concentration 0.000508053 / normalized signal at concentration 0.00152416 / normalized signal at concentration 0.00457247 / normalized signal at concentration 0.0137174 / normalized signal at concentration 0.0411523 / normalized signal at concentration 0.123457 / normalized signal at concentration 0.37037 / normalized signal at concentration 1.11111 / normalized signal at concentration 3.33333 / normalized signal at concentration 10: fraction of control; for IC50: read-out: PbLuc_IC50
[2] = system: HepG2-A16-CD81EGFP cells; details: for IC50: read-out: Tox_IC50, HepG2 cytotoxicity
[3] = second series of columns (replicate)
[4] = sheet 2nd round, maximal inhibition in dose response
[5] = first series of dose-response columns
[6] = sheet 2nd round, Broad compounds, dose response
[7] = second series of dose-response columns

C[C@@H]1CN([C@@H](C)CO)C(=O)c2ccccc2-c2ccccc2CO[C@@H]1CN(C)S(=O)(=O)Cc1ccccc1 [BRD-K06421369-001-01-0]
normalized signal at concentration 0.000508053 ([1]; first series of columns): 1.055 | normalized signal at concentration 0.00152416 ([1]; first series of columns): 1.041 | normalized signal at concentration 0.00457247 ([1]; first series of columns): 0.8367 | normalized signal at concentration 0.0137174 ([1]; first series of columns): 0.8756 | normalized signal at concentration 0.0411523 ([1]; first series of columns): 0.8835 | normalized signal at concentration 0.123457 ([1]; first series of columns): 1.014 | normalized signal at concentration 0.37037 ([1]; first series of columns): 0.8794 | normalized signal at concentration 1.11111 ([1]; first series of columns): 0.8244 | normalized signal at concentration 3.33333 ([1]; first series of columns): 1.118 | normalized signal at concentration 10 ([1]; first series of columns): 0.9941 | IC50 ([1]; sheet 2nd round, Pb-Luc exoerythrocytic stage, 10-point dose response, top concentration 10): > 10 µM | normalized signal at concentration 0.000508053 [1, 3]: 0.9052 | normalized signal at concentration 0.00152416 [1, 3]: 1.004 | normalized signal at concentration 0.00457247 [1, 3]: 1.069 | normalized signal at concentration 0.0137174 [1, 3]: 0.9457 | normalized signal at concentration 0.0411523 [1, 3]: 0.8932 | normalized signal at concentration 0.123457 [1, 3]: 1.033 | normalized signal at concentration 0.37037 [1, 3]: 1.094 | normalized signal at concentration 1.11111 [1, 3]: 1.104 | normalized signal at concentration 3.33333 [1, 3]: 1.032 | normalized signal at concentration 10 [1, 3]: 0.8304 | PbLuc_max_inhibition (%) [1, 4]: 18% | IC50 ([2]; sheet 2nd round): > 10 µM | Tox_max_inhibition (%) [2, 4]: 8.54%

O=C(C1CCOCC1)N1C[C@@H]2[C@H](c3ccccc31)[C@H](CO)N2C(=O)Cc1ccccn1 [BRD-K09790760-001-01-0]
normalised signal at concentration 0.000508053 (first series) ([1]; concentration 0.000508053, first series): 0.7162 | normalised signal at concentration 0.000508053 (second series) ([1]; concentration 0.000508053, second series): 0.9348 | normalised signal at concentration 0.00152416 (first series) ([1]; concentration 0.00152416, first series): 0.8009 | normalised signal at concentration 0.00152416 (second series) ([1]; concentration 0.00152416, second series): 0.7622 | normalised signal at concentration 0.00457247 (first series) ([1]; concentration 0.00457247, first series): 0.9824 | normalised signal at concentration 0.00457247 (second series) ([1]; concentration 0.00457247, second series): 0.8311 | normalised signal at concentration 0.0137174 (first series) ([1]; concentration 0.0137174, first series): 0.8823 | normalised signal at concentration 0.0137174 (second series) ([1]; concentration 0.0137174, second series): 0.8539 | normalised signal at concentration 0.0411523 (first series) ([1]; concentration 0.0411523, first series): 1.052 | normalised signal at concentration 0.0411523 (second series) ([1]; concentration 0.0411523, second series): 0.8968 | normalised signal at concentration 0.123457 (first series) ([1]; concentration 0.123457, first series): 0.7822 | normalised signal at concentration 0.123457 (second series) ([1]; concentration 0.123457, second series): 0.8152 | normalised signal at concentration 0.37037 (first series) ([1]; concentration 0.37037, first series): 0.9579 | normalised signal at concentration 0.37037 (second series) ([1]; concentration 0.37037, second series): 1.035 | normalised signal at concentration 1.11111 (first series) ([1]; concentration 1.11111, first series): 0.8507 | normalised signal at concentration 1.11111 (second series) ([1]; concentration 1.11111, second series): 0.8044 | normalised signal at concentration 3.33333 (first series) ([1]; concentration 3.33333, first series): 0.9897 | normalised signal at concentration 3.33333 (second series) ([1]; concentration 3.33333, second series): 1.088 | normalised signal at concentration 10 (first series) ([1]; concentration 10, first series of dose columns): 0.9272 | normalised signal at concentration 10 (second series) ([1]; concentration 10, second series of dose columns): 0.9177 | IC50 ([1]; sheet "2nd round", Broad compounds, dose response top concentration 10): > 10 µM | PbLuc_max_inhibition (%) ([1]; sheet "2nd round"): 28% | IC50 ([2]; sheet "2nd round"): > 10 µM | Tox_max_inhibition (%) ([2]; sheet "2nd round"): 5%

C[C@@H]1CN([C@H](C)CO)C(=O)c2cc(N(C)C)ccc2O[C@@H](C)CCCCO[C@@H]1CN(C)S(=O)(=O)c1ccc(F)cc1 [BRD-K12341671-001-01-5]
normalized signal at concentration 10 [1, 5]: 0.50 | normalized signal at concentration 0.000508053 ([1]; first series): 0.77 | normalized signal at concentration 0.00152416 ([1]; first series): 1.03 | normalized signal at concentration 0.00457247 ([1]; first series): 1.06 | normalized signal at concentration 0.0137174 ([1]; first series): 0.89 | normalized signal at concentration 0.0411523 ([1]; first series): 0.99 | normalized signal at concentration 0.123457 ([1]; first series): 1.04 | normalized signal at concentration 0.37037 ([1]; first series): 0.93 | normalized signal at concentration 1.11111 ([1]; first series): 0.88 | normalized signal at concentration 3.33333 ([1]; first series): 0.70 | IC50 [1, 6]: > 10 µM | normalized signal at concentration 10 [1, 7]: 0.50 | normalized signal at concentration 0.000508053 ([1]; second series): 0.88 | normalized signal at concentration 0.00152416 ([1]; second series): 1.15 | normalized signal at concentration 0.00457247 ([1]; second series): 0.85 | normalized signal at concentration 0.0137174 ([1]; second series): 0.84 | normalized signal at concentration 0.0411523 ([1]; second series): 0.98 | normalized signal at concentration 0.123457 ([1]; second series): 0.98 | normalized signal at concentration 0.37037 ([1]; second series): 0.92 | normalized signal at concentration 1.11111 ([1]; second series): 0.85 | normalized signal at concentration 3.33333 ([1]; second series): 0.80 | PbLuc_max_inhibition (%) [1, 4]: 50% | IC50 ([2]; sheet 2nd round): > 10 µM | Tox_max_inhibition (%) [2, 4]: 5%

C[C@H]1CN([C@@H](C)CO)C(=O)c2cc(C#Cc3ccccc3)cnc2O[C@H]1CN(C)C(=O)c1ccccc1 [BRD-K12503654-001-01-1]
normalized signal at concentration 10 [1, 5]: 0.56 | normalized signal at concentration 0.000508053 ([1]; first series): 1.00 | normalized signal at concentration 0.00152416 ([1]; first series): 1.04 | normalized signal at concentration 0.00457247 ([1]; first series): 1.07 | normalized signal at concentration 0.0137174 ([1]; first series): 1.02 | normalized signal at concentration 0.0411523 ([1]; first series): 1.04 | normalized signal at concentration 0.123457 ([1]; first series): 0.97 | normalized signal at concentration 0.37037 ([1]; first series): 0.92 | normalized signal at concentration 1.11111 ([1]; first series): 1.13 | normalized signal at concentration 3.33333 ([1]; first series): 0.83 | IC50 [1, 6]: > 10 µM | normalized signal at concentration 10 [1, 7]: 0.51 | normalized signal at concentration 0.000508053 ([1]; second series): 1.07 | normalized signal at concentration 0.00152416 ([1]; second series): 0.85 | normalized signal at concentration 0.00457247 ([1]; second series): 1.01 | normalized signal at concentration 0.0137174 ([1]; second series): 0.97 | normalized signal at concentration 0.0411523 ([1]; second series): 1.21 | normalized signal at concentration 0.123457 ([1]; second series): 1.03 | normalized signal at concentration 0.37037 ([1]; second series): 1.11 | normalized signal at concentration 1.11111 ([1]; second series): 0.90 | normalized signal at concentration 3.33333 ([1]; second series): 0.91 | PbLuc_max_inhibition (%) [1, 4]: 49% | IC50 ([2]; sheet 2nd round): > 10 µM | Tox_max_inhibition (%) [2, 4]: 5.33%

CC(C)[C@H]1COCn2nncc2CCCC(=O)N1 [BRD-K14350179-001-01-1]
normalized signal at concentration 10 [1, 5]: 0.98 | normalized signal at concentration 0.000508053 ([1]; first series): 0.82 | normalized signal at concentration 0.00152416 ([1]; first series): 0.73 | normalized signal at concentration 0.00457247 ([1]; first series): 0.94 | normalized signal at concentration 0.0137174 ([1]; first series): 0.81 | normalized signal at concentration 0.0411523 ([1]; first series): 0.80 | normalized signal at concentration 0.123457 ([1]; first series): 0.97 | normalized signal at concentration 0.37037 ([1]; first series): 0.84 | normalized signal at concentration 1.11111 ([1]; first series): 0.77 | normalized signal at concentration 3.33333 ([1]; first series): 0.76 | IC50 [1, 6]: > 10 µM | normalized signal at concentration 10 [1, 7]: 1.05 | normalized signal at concentration 0.000508053 ([1]; second series): 0.94 | normalized signal at concentration 0.00152416 ([1]; second series): 1.04 | normalized signal at concentration 0.00457247 ([1]; second series): 1.06 | normalized signal at concentration 0.0137174 ([1]; second series): 0.87 | normalized signal at concentration 0.0411523 ([1]; second series): 1.07 | normalized signal at concentration 0.123457 ([1]; second series): 1.10 | normalized signal at concentration 0.37037 ([1]; second series): 1.01 | normalized signal at concentration 1.11111 ([1]; second series): 0.86 | normalized signal at concentration 3.33333 ([1]; second series): 0.89 | PbLuc_max_inhibition (%) [1, 4]: 27% | IC50 ([2]; sheet 2nd round): > 10 µM | Tox_max_inhibition (%) [2, 4]: 5.35%
